US20260285850A1, “SUBSTITUTED OXAZOLIDINONES AND IMIDAZOLINONES AS HERBICIDES” (FMC CORPORATION, priority 2023, published 2026)

Tests used:
Format in all cases: in vivo
[1] = tested on: ragweed (common ragweed, Ambrosia artemisiifolia); experiment: Test A postemergence application, visual injury rating 0-100; conditions: 10 days
From the text: (§1) Seeds of plant species selected from barnyardgrass (Echinochloa crus-galli), blackgrass (Alopecurus myosuroides), corn (Zea mays), foxtail, giant (giant foxtail, Setaria faberi), green foxtail (Setaria viridis), goosegrass (Eleusine indica), kochia (Bassia scoparia), oat, wild (wild oat, Avena fatua), palmer (palmer amaranth, palmer pigweed, Amaranthus palmeri), ragweed (common ragweed, Ambrosia artemisiifolia), ryegrass, Italian (italian ryegrass, Lolium multiflorum), soybean (Glycine max) and wheat (Triticum aestivum) were planted into a blend of loam soil and sand and treated preemergence with a directed soil spray using test chemicals formulated in a non-phytotoxic solvent mixture which included a surfactant.
(§2) At the same time, plants selected from these crops and weed species and also galium (catchweed bedstraw, Galium aparine) and horseweed (Erigeron canadensis) were planted in pots containing the same blend of loam soil and sand and treated with postemergence applications of test chemicals formulated in the same manner. Plants ranged in height from 2 to 10 cm and were in the one- to two-leaf stage for the postemergence treatment. Treated plants and untreated controls were maintained in a greenhouse for 10 days, after which time all treated plants were compared to untreated controls and visually evaluated for injury. Plant response ratings, summarized in Table A, are based on a 0 to 100 scale where 0 is no effect and 100 is complete control. A dash (-) response means no test result.

[2] = tested on: ryegrass, Italian (italian ryegrass, Lolium multiflorum); experiment: as above; conditions: 10 days
From the text: as §1, §2

[3] = tested on: barnyardgrass (Echinochloa crus-galli); experiment: as above; conditions: 10 days
From the text: as §1, §2

[4] = tested on: blackgrass (Alopecurus myosuroides); experiment: as above; conditions: 10 days
From the text: as §1, §2

[5] = tested on: horseweed (Erigeron canadensis); experiment: as above; conditions: 10 days
From the text: as §1, §2

[6] = tested on: oat, wild (wild oat, Avena fatua); experiment: as above; conditions: 10 days
From the text: as §1, §2

kochia (Bassia scoparia) [7] = experiment: as above; conditions: 10 days
From the text: as §1, §2

[8] = tested on: wheat (Triticum aestivum); experiment: as above; conditions: 10 days
From the text: as §1, §2

corn (Zea mays) [9] = experiment: as above; conditions: 10 days
From the text: as §1, §2

[10] = tested on: green foxtail (Setaria viridis); experiment: as above; conditions: 10 days
From the text: as §1, §2

soybean (Glycine max) [11] = experiment: as above; conditions: 10 days
From the text: as §1, §2

[12] = tested on: palmer (palmer amaranth, palmer pigweed, Amaranthus palmeri); experiment: as above; conditions: 10 days
From the text: as §1, §2

[13] = tested on: ragweed (common ragweed, Ambrosia artemisiifolia); experiment: Test A preemergence soil spray, visual injury rating 0-100; conditions: 10 days, 0 = no effect, 100 = complete control
From the text: as §1, §2

[14] = tested on: ryegrass, Italian (italian ryegrass, Lolium multiflorum); experiment: as above; conditions: 10 days, 0 = no effect, 100 = complete control
From the text: as §1, §2

[15] = tested on: barnyardgrass (Echinochloa crus-galli); experiment: as above; conditions: 10 days, 0 = no effect, 100 = complete control
From the text: as §1, §2

[16] = tested on: blackgrass (Alopecurus myosuroides); experiment: as above; conditions: 10 days, 0 = no effect, 100 = complete control
From the text: as §1, §2

[17] = tested on: oat, wild (wild oat, Avena fatua); experiment: as above; conditions: 10 days, 0 = no effect, 100 = complete control
From the text: as §1, §2

kochia (Bassia scoparia) [18] = experiment: as above; conditions: 10 days, 0 = no effect, 100 = complete control
From the text: as §1, §2

[19] = tested on: wheat (Triticum aestivum); experiment: as above; conditions: 10 days, 0 = no effect, 100 = complete control
From the text: as §1, §2

corn (Zea mays) [20] = experiment: as above; conditions: 10 days, 0 = no effect, 100 = complete control
From the text: as §1, §2

[21] = tested on: green foxtail (Setaria viridis); experiment: as above; conditions: 10 days, 0 = no effect, 100 = complete control
From the text: as §1, §2

soybean (Glycine max) [22] = experiment: as above; conditions: 10 days, 0 = no effect, 100 = complete control
From the text: as §1, §2

[23] = tested on: palmer (palmer amaranth, palmer pigweed, Amaranthus palmeri); experiment: as above; conditions: 10 days, 0 = no effect, 100 = complete control
From the text: as §1, §2

[24] = 31 g ai/ha, postemergence, 0 = no effect, 100 = complete control
[25] = Postemergence, 125 g ai/ha, 0 is no effect, 100 is complete control

CONC(=O)C1CC(NC(=O)C2(C)CN(c3cc(F)cc(F)c3)C(=O)O2)CO1 (stereo not shown) [Compound 41]
Ragweed plant response rating (0-100) [1, 24]: 0
Ragweed plant response rating (0 to 100 scale) [1, 25]: 0
Ryegrass, Italian plant response rating (0-100) [2, 24]: 0
Ryegrass, Italian plant response rating (0 to 100 scale) [2, 25]: 50
Barnyardgrass plant response rating (0-100) [3, 24]: 0
Barnyardgrass plant response rating (0 to 100 scale) [3, 25]: 30
Blackgrass plant response rating (0-100) [4, 24]: 0
Blackgrass plant response rating (0 to 100 scale) [4, 25]: 90
Horseweed plant response rating (0-100) [5, 24]: 0
Horseweed plant response rating (0 to 100 scale) [5, 25]: 0
Oat, Wild plant response rating (0-100) [6, 24]: 10
Oat, Wild plant response rating (0 to 100 scale) [6, 25]: 40
Kochia plant response rating (0-100) (kochia (Bassia scoparia) [7]; [24]): 0
Kochia plant response rating (0 to 100 scale) (kochia (Bassia scoparia) [7]; [25]): 0
Wheat plant response rating (0-100) [8, 24]: 20
Wheat plant response rating (0 to 100 scale) [8, 25]: 80
Corn plant response rating (0-100) (corn (Zea mays) [9]; [24]): 0
Corn plant response rating (0 to 100 scale) (corn (Zea mays) [9]; [25]): 0
Foxtail, Green plant response rating (0-100) [10, 24]: 20
Foxtail, Green plant response rating (0 to 100 scale) [10, 25]: 30
Soybean plant response rating (0-100) (soybean (Glycine max) [11]; [24]): 0
Soybean plant response rating (0 to 100 scale) (soybean (Glycine max) [11]; [25]): 0
Amaranth, Palmer plant response rating (0-100) [12, 24]: 0
Amaranth, Palmer / Pigweed, Palmer plant response rating (0 to 100 scale) [12, 25]: 0
Ragweed plant response rating (0-100) ([13]; 31 g ai/ha): 0
Ragweed plant response rating (0 to 100 scale) ([13]; 125 g ai/ha): 0
Ryegrass, Italian plant response rating (0-100) ([14]; 31 g ai/ha): 0
Ryegrass, Italian plant response rating (0 to 100 scale) ([14]; 125 g ai/ha): 0
Barnyardgrass plant response rating (0-100) ([15]; 31 g ai/ha): 0
Barnyardgrass plant response rating (0 to 100 scale) ([15]; 125 g ai/ha): 0
Blackgrass plant response rating (0-100) ([16]; 31 g ai/ha): 0
Blackgrass plant response rating (0 to 100 scale) ([16]; 125 g ai/ha): 0
Oat, Wild plant response rating (0-100) ([17]; 31 g ai/ha): 0
Oat, Wild plant response rating (0 to 100 scale) ([17]; 125 g ai/ha): 0
Kochia plant response rating (0-100) (kochia (Bassia scoparia) [18]; 31 g ai/ha): 0
Kochia plant response rating (0 to 100 scale) (kochia (Bassia scoparia) [18]; 125 g ai/ha): 0
Wheat plant response rating (0-100) ([19]; 31 g ai/ha): 0
Wheat plant response rating (0 to 100 scale) ([19]; 125 g ai/ha): 0
Corn plant response rating (0-100) (corn (Zea mays) [20]; 31 g ai/ha): 0
Corn plant response rating (0 to 100 scale) (corn (Zea mays) [20]; 125 g ai/ha): 0
Foxtail, Green plant response rating (0-100) ([21]; 31 g ai/ha): 0
Foxtail, Green plant response rating (0 to 100 scale) ([21]; 125 g ai/ha): 0
Soybean plant response rating (0-100) (soybean (Glycine max) [22]; 31 g ai/ha): 0
Soybean plant response rating (0 to 100 scale) (soybean (Glycine max) [22]; 125 g ai/ha): 0
Amaranth, Palmer plant response rating (0-100) ([23]; 31 g ai/ha): 0
Amaranth, Palmer plant response rating (0 to 100 scale) ([23]; 125 g ai/ha): 0
